These results are taken from patent publication US20240058308A1, “TREATMENT AND PREVENTION OF DRY MACULAR DEGENERATION” (The Regents of the University of Michigan, priority 2021, published 2024).

The subject of data set [1] is RPE of mouse eye. Kind of data set: Intravitreal injection in mouse eyes, autophagy by LC3II/LC3I ratio of lysates. In kind it is in vivo. Conditions: four concentrations up to 500 uM, multiple timepoints, DMSO in other eye. The protocol:
Experiments were conducted during development of embodiments herein to assay for autophagy in the mouse eye. Experiments were conducted to measure autophagy by giving an intraperitoneal injection of leupeptin, followed by assaying for LC3 puncta in an RPE flatmount of a GFP-LC3 mouse. Background from GFP-LC3 debris deposited on the RPE when the retina was peeled off for the flat mount prevented signal detection. A biochemical assay was then employed for autophagy induction, measuring an increase in the lipidation of the autophagy core protein LC3 (lipidated LC3=LC3-II, unlipidated LC3=LC3-I, so higher LC3-II/LC3-I ratio indicates autophagy induction). Sufficient signal as obtained. […] Harvesting techniques were also optimized for collecting RPE from mouse eyes.
Experiments were conducted during development of embodiments herein to establish a positive control for autophagy induction. […] Autophagy induction was measured at 4 different concentrations of Torin (500 nm, 5 um, 50 um, 500 um) and at 5 different timepoints after injection (1 day, 3 days, 7 days, 14 days, 28 days). […] Nevertheless, the ability of intravitreal injections of FLBZ to induce autophagy in the RPE was assessed. In preparation for injecting FLBZ intravitreally into mice, solubility assays were performed and the maximum amount of FLBZ that can be injected without it crashing out of solution in the vitreous was determined. […]

Data set [2] has as its system primary human fetal RPE (hfRPE) culture. Description: Autophagy induction by LC3 puncta formation (immunocytochemistry). Format: cell-based. As to conditions: 24 hours exposure. As to the method: Cell cultures were exposed to each putative autophagy inducer at a concentration indicated in Table 1 for 24 hours, lysed with 36 μL of SDS sample buffer with β-mercaptoethanol, with 15 μg of lysate loaded on a 4-15% gradient gel followed by transfer to a PVDF membrane. Blots were incubated with 1:1000 of LC3A/B antibody (Cell Signaling Technology; #4108s, RRID:AB_2137703) overnight. Quantifying LC3-II/LC3-I ratio is a well-accepted method for det 306 ermining autophagy induction [Ref. 44; incorporated by reference in its entirety], and this ratio was quantified in a non-saturated, linear range using the Azure c500 Imaging System (Azure Biosystems, Dublin, CA, USA) and a combination of AzureSpot and ImageJ software. The data in FIG. 2A are not normalized, whereas the data in FIGS. 2b and 1c are normalized to the average combined value of the vehicle and drug groups within each experimental repeat. The extreme pigmentation of human fetal cultures, combined with the destruction of the LC3 epitope with melanin bleaching protocols, makes detection of LC3 by microscopy in hfRPE difficult. A range of LC3 staining and puncta quantification protocols specifically adapted to pigmented hfRPE culture were employed [Ref. 43; incorporated by reference in its entirety]. At least five fields of view were randomly chosen and analyzed per experimental replicate for LC3 immunocytochemistry.
Autophagy induction was confirmed by assaying the formation of LC3-positive puncta (autophagosomes) by immunocytochemistry [Ref. 44; incorporated by reference in its entirety]. Puncta formation was quantified in automated/unbiased fashion using a customized macro in the Fiji/ImageJ platform [Ref. 43; incorporated by reference in its entirety].
Autophagy induction was measured by LC3 puncta on immunocytochemistry (standard method for autophagy induction) (FIG. 19). Drugs applied to primary human RPE culture for 24 hours.

The test system is the same in data set [3]. Kind of data set: Autophagy flux assay with NH4Cl lysosomal alkalinization. In kind it is cell-based. As to conditions: inducer 22.5 hours, then 25 mM NH4Cl for final 1.5 hours.
Protocol: Cultures were exposed to compounds or vehicle (DMSO) for 24 hours. […] (C) Autophagy flux assays. After application of inducers or vehicle (DMSO) for 22.5 hours, 25 mM of NH4Cl, a lysosomal alkalizing agent, or H2O were added for a final 1.5 hours to inhibit autophagy flux.
Increases in both LC3 lipidation and autophagosome formation could result from downstream blockade of autophagy at the lysosome.
Data set [4] is described as follows: Solubility assays of DMSO stock mixed with PBS (simulating the vitreous). In kind it is physicochemical. The protocol:
Experiments were conducted during development of embodiments herein to establish a positive control for autophagy induction. The direct mTOR inhibitor Torin1 was selected over rapamycin/sirolimus as the positive control, based on the capacity of Torin1 to induce autophagy in primary culture more strongly and more consistently than rapamycin. The experimental set-up involved injecting one eye with Torin and the other eye with the DMSO vehicle. Autophagy induction was measured at 4 different concentrations of Torin (500 nm, 5 um, 50 um, 500 um) and at 5 different timepoints after injection (1 day, 3 days, 7 days, 14 days, 28 days). […] Nevertheless, the ability of intravitreal injections of FLBZ to induce autophagy in the RPE was assessed. In preparation for injecting FLBZ intravitreally into mice, solubility assays were performed and the maximum amount of FLBZ that can be injected without it crashing out of solution in the vitreous was determined. […] This helped inform maximal concentrations of flubendazole that could be injected intravitreally. Four different concentrations were injected, up to the maximum solubility of FLBZ, and autophagy induction was assayed over a timeframe ranging from 1 week to 4 weeks after injection.

The subject of data set [5] is primary hfRPE culture. Kind of data set: Trans-epithelial electrical resistance (TEER), tight-junction integrity. Format: cell-based. Conditions: TEER measured after 20 FLBZ feedings, after UAM accumulation. As to the method: TEER and cell death were measured [Ref 51; incorporated by reference in its entirety]. For cell death assays, maximum possible LDH release per Transwell was measured immediately after 2 μL of the final experimental supernate was taken. The Transwell and supernate was then treated with 0.2% Triton X-100 for 15 minutes at 37° C. followed by collection of an additional 2 μL of supernate. Each experimental LDH release value was first normalized to total LDH release from the vehicle condition. Additionally, all TEER and LDH release measurements were normalized to the vehicle group at the zero-hour timepoint.
To evaluate the safety of D4476 and FLBZ, trans-epithelial electrical resistance (TEER) was measured, a measure of tight-junction integrity, in RPE cultures after prolonged exposure to each compound. As well-formed tight-junctions require myriad cell processes to be optimally coordinated, assessing TEER provides an easily measurable, ongoing, and noninvasive marker for general RPE cell health [Ref. 45; incorporated by reference in its entirety]. […] Lactate dehydrogenase (LDH) release, a combined marker of necrotic and late-stage apoptotic cell death [Refs. 47,48; incorporated by reference in their entireties], was reduced compared to vehicle for all four verified RPE autophagy inducers (FIG. 3b). Exposure of RPE cultures to the oxidant tert-butyl hydroperoxide confirmed the ability of the assay to detect cell death (FIG. 10).
Transepithelial Electrical Resistance (TEER) was tested (FIGS. 16 and 17). TEER is a sensitive measure of toxicity (lower the TEER, the more toxic the drug is). Drugs were added daily and measurements made daily for at least 4-8 days.

In data set [6] the test system is primary hfRPE culture. Description: Undigestible autofluorescent material (UAM) accumulation, elimination and granule size after oxOS feedings. In kind it is cell-based, human.

Each structure is given as a SMILES string. In brackets after ≈: the same amount, converted by molar mass.

Regarding `COC(=O)Nc1nc2cc(C(=O)c3ccc(F)cc3)ccc2[nH]1` [FLBZ, Flubendazole], the “Autophagy induction in RPE after intravitreal injection (LC3II/LC3I ratio)” value in data set [1] is “no convincing evidence for autophagy induction”. The “LC3 puncta formation (autophagy induction)” value in data set [2] was “induced autophagy”. For the same compound, the “Autophagy flux: LC3-II/LC3-I ratio after NH4Cl” value in data set [3] is “induces autophagy flux”. In addition, the solubility in data set [4] (DMSO stock solution mixed with PBS (simulating the vitreous), aqueous with cosolvent or surfactant or cyclodextrin, kinetic from dmso stock, delivered in 1 ul of DMSO, read-out: Maximum soluble concentration for intravitreal injection) is 500 µM (≈ 157 µg/mL). The “Precipitation of DMSO stock solution when mixed with PBS” value in data set [4] (Torin 1 mM stock mixed 1:1 with PBS, flubendazole 3 mM stock) was “crashed out when mixed with PBS unless at a dilution of 1:20 or more”. Further, in data set [5], the “Cell health by tight-junction integrity (TEER) in cultures with established UAM” value is “improved cell health”. The “UAM granule size, drug during oxOS feedings” value in data set [6] (concurrent feeding of oxOS and drug) is recorded as “smaller than untreated cultures”. In addition, the “UAM accumulation, drug fed concurrently with oxOS” value in data set [6] (fed daily with oxOS over a month, FLBZ 12 μM, Torin 1 μM, vs vehicle) is “significantly less UAM accumulation”. In addition, the “UAM granule size, drug after UAM buildup” value in data set [6] (twenty drug feedings after UAM accrual) is recorded as “smaller granule size”. The “UAM level, drug fed after UAM had accumulated” value in data set [6] (twenty oxOS feedings, wash, then twenty drug feedings over an additional month) is “significantly lower levels of UAM”.
